Data set [1] is described as follows: Solubility of VoltageFluor dyes and sulfofluoresceins in water. It counts as physicochemical. The conditions noted are these: for solubility at 3 days: water, 20 °C, kinetic from dmso stock, H2O with 0.1% DMSO, read-out: aqueous solubility. As to the method:
Suspensions of 5 milligrams each of solid mono- and disulfo-dichlorofluoresceins in 5 mL of distilled water were created. Over the course of three days, 5 milligrams of solid material was added at a time, ensuring that no visible particulates were present in the solution prior to addition. At the end of the experiment, the suspension was filtered through filter paper and then through a 0.22-μm polytetrafluoroethylene filter into a scintillation vial. 10 μL of this filtrate was used as a stock solution to determine the concentration of fluorescein present via UV-Vis spectrophotometry and the remainder was lyophilized and the amount of solid resulting was measured using an analytical microbalance. For VF dyes (VF2.1.Cl and VF2.2(OMe).Cl, both ms and ds versions), saturated solutions in distilled water were prepared via dilution from a 100 μM stock in DMSO for a resulting solution containing 0.1% DMSO. The solutions were allowed to sit overnight at 20 degrees Celsius and then filtered through 0.22-μm filters. The resulting filtrates were used as stock solutions to determine the amount of VF present via UV-Vis spectrophotometry.

Another data set deals with HEK293T cells. The data set can be described thus: Voltage sensitivity in HEK cells, whole-cell patch clamp with fluorescence imaging. It counts as cell-based. The conditions noted are these: for ΔF/F (%) voltage sensitivity: per 100 mV, HEK cells, whole-cell voltage clamp, 200 nM VF; for Improvement (%) in voltage sensitivity: relative to corresponding msVF. As to the method: Functional imaging of VF dyes was performed using a 20× objective paired with image capture from the EMCCD camera at a sampling rate of 0.5 kHz. VF dyes were excited using the 488 nm LED with an intensity of 2.5 W/cm^2. For initial voltage characterization emission was collected with the QUAD filter (430/32, 508/14, 586/30, 708/98 nm) after passing through a quadruple dichroic mirror (432/38, 509/22, 586/40, 654 nm LP).
Recordings were obtained with an Axopatch 200B amplifier (Molecular Devices) at room temperature. The signals were digitized with Digidata 1332A, sampled at 50 kHz and recorded with pCLAMP 10 software (Molecular Devices) on a PC. Fast capacitance was compensated in the on-cell configuration. For all electrophysiology experiments, recordings were only pursued if series resistance in voltage clamp was less than 30 MΩ. For whole-cell, voltage clamp recordings in HEK 293T cells, cells were held at −60 mV and 100 ms hyper- and depolarizing steps applied from −100 to +100 mV in 20 mV increments. For whole-cell, following membrane rupture, resting membrane potential was assessed and recorded at I=0 and monitored during the data acquisition.
Analysis of voltage sensitivity in HEK cells was performed using custom Matlab routines. Briefly, a region of interest (ROI) was selected automatically based on fluorescence intensity and applied as a mask to all image frames. Fluorescence intensity values were calculated at known baseline and voltage step epochs.
To determine the voltage sensitivity of each of the dyes, whole-cell patch clamp electrophysiology was performed on HEK293T cells loaded with 200 nM VF (FIG. 8a-d). Depolarization of the cell membrane in the presence of VF dye results in a large increase of fluorescence, while hyperpolarization results in lower levels of fluorescence (FIG. 8c-d; FIG. 9). As an illustrative comparison, msVF2.2(OMe). […] Cl, at 48% per 100 mV. The disulfoVF2.2(OMe).
A general note: Patch clamp records ionic current or voltage across a cell membrane.

Data set [2] is described as follows: Spectroscopic studies (absorbance, emission, quantum yield). It counts as physicochemical. The conditions noted are these: phosphate-buffered saline, pH 7.4 with 0.1% Triton X-100. As to the method: Stock solutions of VF dyes were prepared in DMSO (1.0-10 mM) and diluted with PBS (100 mM Na2HPO4, pH 7.4, 0.1% Triton-X). UV-Vis absorbance and fluorescence spectra were recorded using a Shimadzu 2501 Spectrophotometer (Shimadzu) and a Quantamaster Master 4 L-format scanning spectrofluorometer (Photon Technologies International). The fluorometer is equipped with an LPS-220B 75-W xenon lamp and power supply, A-1010B lamp housing with integrated igniter, switchable 814 photon-counting/analog photomultiplier detection unit, and MD5020 motor driver. Samples were measured in 1-cm path length quartz cuvettes (Starna Cells).

These results are taken from patent publication US10370351B2, “Photoinduced electron transfer voltage-sensitive compounds” (The Regents of the University of California, priority 2016, dated 2019).

≈ marks a conversion by molar mass, not a printed value.

For orientation: solubility means the dissolved amount per volume that the medium holds.

“5-bromo-2′,7′-dichlorodisulfofluorescein [ds-dichlorofluorescein]”: in data set [1] (relative to monosulfo 5, spectroscopically or gravimetrically), the “improvement of aqueous solubility” value was 2.3 fold.

Turning to `CCN(CC)c1ccc(/C=C/c2ccc(/C=C/c3cc(S(=O)(=O)O)c(-c4c5cc(F)c(=O)cc-5oc5cc(O)c(F)cc45)c(S(=O)(=O)O)c3)cc2)c(OC)c1` [dsVF2.2(OMe).F], in the data set with HEK293T cells, the “ΔF/F (%) voltage sensitivity” value stood at 60% and the “Improvement (%) in voltage sensitivity” value stood at 22%. Besides, in data set [2], the “Φf1 (fluorescence quantum yield)” value is 0.06, the λabs amounted to 509 nm and the λem came out at 529 nm.

For the compound `O=c1cc2oc3cc(O)c(Cl)cc3c(-c3ccc(Br)cc3S(=O)(=O)O)c-2cc1Cl` [ms-dichlorofluorescein, 5-bromo-2′,7′-dichlorosulfofluorescein], the solubility at 3 days in data set [1] turned out to be 410 µM (≈ 212 µg/mL).

`CN(C)c1ccc(/C=C/c2ccc(/C=C/c3cc(S(=O)(=O)O)c(-c4c5ccc(=O)cc-5oc5cc(O)ccc45)c(S(=O)(=O)O)c3)cc2)cc1` [dsVF2.1.H]: in the data set on HEK293T cells, the “ΔF/F (%) voltage sensitivity” value was determined as 20% and the “Improvement (%) in voltage sensitivity” value was determined as 17%. Further, in data set [2], the “Φf1 (fluorescence quantum yield)” value is on record as 0.14, the λabs was determined as 509 nm and the λem was determined as 540 nm.

`CCN(CC)c1ccc(/C=C/c2ccc(/C=C/c3ccc(-c4c5cc(Cl)c(=O)cc-5oc5cc(O)c(Cl)cc45)c(S(=O)(=O)O)c3)cc2)c(OC)c1` [msVF2.2(OMe).Cl]: the “ΔF/F (%) voltage sensitivity” value in the data set on HEK293T cells turned out to be 53%. The “ΔF/F (%) voltage sensitivity” value in the data set with HEK293T cells (listed as msVF2.2(OMe). Cl) is listed as “approximately 53%”. Also, in data set [2], the “Φf1 (fluorescence quantum yield)” value turned out to be 0.06, the λabs was 518 nm and the λem turned out to be 534 nm.

As for `O=c1cc2oc3cc(O)c(Cl)cc3c(-c3c(S(=O)(=O)O)cc(Br)cc3S(=O)(=O)O)c-2cc1Cl` [ds-dichlorofluorescein, 5-bromo-2′,7′-dichlorodisulfofluorescein], in data set [1], the solubility at 3 days is at most 940 µM.

Take `CN(C)c1ccc(/C=C/c2ccc(/C=C/c3cc(S(=O)(=O)O)c(-c4c5cc(Cl)c(=O)cc-5oc5cc(O)c(Cl)cc45)c(S(=O)(=O)O)c3)cc2)cc1` [dsVF2.1.Cl]: in the data set on HEK293T cells, the “ΔF/F (%) voltage sensitivity” value was 36% and the “Improvement (%) in voltage sensitivity” value is listed as 21%. For the same compound, in data set [2], the “Φf1 (fluorescence quantum yield)” value came out at 0.08, the λabs came to 520 nm and the λem was found to be 539 nm. In addition, in data set [1] (ds vs ms VF dye, distilled water, 0.1% DMSO, 20 degrees Celsius, UV-Vis), the “improvement of aqueous solubility by second sulfonate” value was determined as 22%.

Take `CN(C)c1ccc(/C=C/c2ccc(/C=C/c3cc(S(=O)(=O)O)c(-c4c5cc(F)c(=O)cc-5oc5cc(O)c(F)cc45)c(S(=O)(=O)O)c3)cc2)cc1` [dsVF2.1.F]: in the data set on HEK293T cells, the “ΔF/F (%) voltage sensitivity” value is on record as 33% and the “Improvement (%) in voltage sensitivity” value is reported as 25%. Also, in data set [2], the “Φf1 (fluorescence quantum yield)” value came to 0.13, the λabs worked out at 507 nm and the λem came out at 529 nm.

Regarding `CCN(CC)c1ccc(/C=C/c2ccc(/C=C/c3cc(S(=O)(=O)O)c(-c4c5ccc(=O)cc-5oc5cc(O)ccc45)c(S(=O)(=O)O)c3)cc2)c(OC)c1` [dsVF2.2(OMe).H], in the data set with HEK293T cells, the “ΔF/F (%) voltage sensitivity” value was found to be 57% and the “Improvement (%) in voltage sensitivity” value is reported as 9%. Also, in data set [2], the “Φf1 (fluorescence quantum yield)” value was 0.11, the λabs came out at 510 nm and the λem came to 530 nm.

In the case of `CCN(CC)c1ccc(/C=C/c2ccc(/C=C/c3ccc(-c4c5cc(F)c(=O)cc-5oc5cc(O)c(F)cc45)c(S(=O)(=O)O)c3)cc2)c(OC)c1` [msVF2.2(OMe).F], in the data set on HEK293T cells, the “ΔF/F (%) voltage sensitivity” value worked out at 49%. In addition, in data set [2], the “Φf1 (fluorescence quantum yield)” value is reported as 0.06, the λabs came to 505 nm and the λem was 524 nm.

Consider `CCN(CC)c1ccc(/C=C/c2ccc(/C=C/c3ccc(-c4c5ccc(=O)cc-5oc5cc(O)ccc45)c(S(=O)(=O)O)c3)cc2)c(OC)c1` [msVF2.2(OMe).H], for which the “ΔF/F (%) voltage sensitivity” value in the data set with HEK293T cells is listed as 53%. Also, in data set [2], the “Φf1 (fluorescence quantum yield)” value came out at 0.08, the λabs worked out at 508 nm and the λem came to 530 nm.
